Experimental findings from PMC12624712 (ACS Infectious Diseases, 2025) are described below.

In one data set the test system is RVFV strain ZH-548. Nature of the data set: microbe, parasite or virus in culture. Format: cell-based. Conditions: for IC50: Rift Valley fever virus.
Another data set deals with RVFV L protein (Rift valley fever virus, UniProt P27316). Nature of the data set: cell-based.
Another data set in a line: in vitro. Conditions: African green monkey.
Setting [1] is: Vero C1008, 72 h, read-out: IC50, cytopathic effect reduction assay.
The mark [2] stands for this setting: Vero C1008, read-out: IC50: 95% CI, CPE reduction assay.

Like-named read-outs stand apart in the source and are kept apart here. A value given as a limit tells only on which side of the number the result lay.

RVFV L protein, sequence (P27316 whole entry, looked up): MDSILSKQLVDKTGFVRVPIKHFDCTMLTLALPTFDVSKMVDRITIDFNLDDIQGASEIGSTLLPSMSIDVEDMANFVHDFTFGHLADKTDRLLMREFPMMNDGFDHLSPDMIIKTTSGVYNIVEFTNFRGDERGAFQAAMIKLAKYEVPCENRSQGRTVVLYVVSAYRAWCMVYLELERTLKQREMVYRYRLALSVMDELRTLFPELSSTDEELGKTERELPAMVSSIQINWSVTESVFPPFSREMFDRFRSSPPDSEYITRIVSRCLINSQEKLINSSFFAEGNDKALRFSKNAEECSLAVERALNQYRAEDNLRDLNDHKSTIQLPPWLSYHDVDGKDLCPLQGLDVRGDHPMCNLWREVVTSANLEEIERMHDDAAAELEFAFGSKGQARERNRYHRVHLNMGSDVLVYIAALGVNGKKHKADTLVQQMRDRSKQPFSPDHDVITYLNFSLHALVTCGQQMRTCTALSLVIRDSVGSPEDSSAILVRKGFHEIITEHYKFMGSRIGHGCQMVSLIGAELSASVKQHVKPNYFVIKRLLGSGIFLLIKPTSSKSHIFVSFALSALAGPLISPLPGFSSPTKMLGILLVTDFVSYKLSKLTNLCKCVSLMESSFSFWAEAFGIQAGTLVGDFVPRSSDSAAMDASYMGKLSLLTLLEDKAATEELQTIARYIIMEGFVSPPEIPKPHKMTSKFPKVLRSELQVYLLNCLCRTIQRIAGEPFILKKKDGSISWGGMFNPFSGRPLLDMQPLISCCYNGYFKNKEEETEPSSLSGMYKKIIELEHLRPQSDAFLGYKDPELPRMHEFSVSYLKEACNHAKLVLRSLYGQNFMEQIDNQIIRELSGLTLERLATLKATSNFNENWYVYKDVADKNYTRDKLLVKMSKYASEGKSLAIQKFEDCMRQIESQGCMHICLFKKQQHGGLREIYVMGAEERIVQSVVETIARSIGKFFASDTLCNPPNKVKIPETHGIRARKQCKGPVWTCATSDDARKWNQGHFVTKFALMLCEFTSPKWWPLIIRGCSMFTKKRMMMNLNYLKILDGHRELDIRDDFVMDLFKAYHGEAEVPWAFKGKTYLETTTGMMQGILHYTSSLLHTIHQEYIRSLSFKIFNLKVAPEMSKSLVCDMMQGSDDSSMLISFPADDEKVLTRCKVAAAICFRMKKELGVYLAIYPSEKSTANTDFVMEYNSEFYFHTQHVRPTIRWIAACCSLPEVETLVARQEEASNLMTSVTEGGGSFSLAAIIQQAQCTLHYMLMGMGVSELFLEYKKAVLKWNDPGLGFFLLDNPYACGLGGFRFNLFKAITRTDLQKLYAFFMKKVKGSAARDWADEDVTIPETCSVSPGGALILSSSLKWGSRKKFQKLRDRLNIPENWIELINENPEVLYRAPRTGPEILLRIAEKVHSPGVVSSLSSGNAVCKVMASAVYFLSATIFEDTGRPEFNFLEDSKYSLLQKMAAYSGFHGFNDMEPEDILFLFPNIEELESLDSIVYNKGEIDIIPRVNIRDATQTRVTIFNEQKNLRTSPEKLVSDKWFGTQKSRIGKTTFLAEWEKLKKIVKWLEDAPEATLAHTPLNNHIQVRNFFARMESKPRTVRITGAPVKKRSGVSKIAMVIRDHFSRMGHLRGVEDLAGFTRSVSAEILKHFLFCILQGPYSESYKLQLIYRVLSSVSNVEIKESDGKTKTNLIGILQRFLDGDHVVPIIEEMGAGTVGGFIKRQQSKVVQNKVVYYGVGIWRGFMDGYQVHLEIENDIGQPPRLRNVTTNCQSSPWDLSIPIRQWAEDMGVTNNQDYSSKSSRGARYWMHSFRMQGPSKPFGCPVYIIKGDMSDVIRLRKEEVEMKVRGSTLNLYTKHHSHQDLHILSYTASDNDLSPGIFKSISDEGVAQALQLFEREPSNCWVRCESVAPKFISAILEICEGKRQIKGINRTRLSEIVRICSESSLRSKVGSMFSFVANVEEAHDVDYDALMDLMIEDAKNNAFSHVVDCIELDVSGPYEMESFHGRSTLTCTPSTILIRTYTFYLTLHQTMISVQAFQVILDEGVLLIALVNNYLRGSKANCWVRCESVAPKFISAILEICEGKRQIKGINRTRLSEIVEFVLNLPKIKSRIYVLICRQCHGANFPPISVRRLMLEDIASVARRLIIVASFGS

In the case of 5'-aza-2'-deoxycytidine [Decitabine], the CC50 with VERO E6 cells is greater than 100 µM.

As for 5'-azacytidine, in the data set with VERO E6 cells, the CC50 is greater than 100 µM.

In the data set on VERO E6 cells, 5'-fluoro-2'-deoxycytidine gave a CC50 greater than 100 µM.

By IC50 is commonly meant the concentration needed to halve the response being measured. Regarding `Nc1ccn([C@@H]2O[C@H](CO)[C@@H](O)[C@H]2F)c(=O)n1` [2'-fluoro-2'-deoxycytidine], the IC50 is 3 ± 0.3 µM in the data set on RVFV strain ZH-548 (setting [1]), 2.4 to 3.9 µM in the data set on RVFV strain ZH-548 (setting [2]) and 5.9 ± 1.1 µM at RVFV L protein. Further, in the data set on VERO E6 cells, the “Cytotoxicity” value is recorded as “nontoxic in selected concentration range”. In “in vitro”, this compound yielded a CC50 greater than 100 µM.

`Nc1ncnc2c1ncn2[C@@H]1O[C@H](CO)[C@@H](O)[C@H]1F` [2´-fluoro-2´-deoxyadenosine]: the IC50 in the data set with RVFV strain ZH-548 (setting [1]) was greater than 100 µM. The same compound showed a CC50 in “in vitro” greater than 100 µM.

Take `Nc1nc2c(ncn2[C@@H]2O[C@H](CO)[C@@H](O)[C@H]2F)c(=O)[nH]1` [2´-fluoro-2´-deoxyguanosine]: the IC50 in the data set with RVFV strain ZH-548 (setting [1]) is 23 ± 3 µM. The compound also gave a CC50 in “in vitro” greater than 100 µM.

As for `Cc1cn([C@@H]2O[C@H](CO)[C@@H](O)[C@H]2F)c(=O)[nH]c1=O` [2´-fluoro-2´-deoxythymidine], in the data set on RVFV strain ZH-548 (setting [1]), the IC50 is greater than 100 µM. The same compound gave a CC50 in the data set “in vitro” greater than 100 µM.

For `O=c1ccn([C@@H]2O[C@H](CO)[C@@H](O)[C@H]2F)c(=O)[nH]1` [2´-fluoro-2´-deoxyuridine], the IC50 with RVFV strain ZH-548 (setting [1]) was greater than 100 µM. This compound came in with a CC50 in the data set “in vitro” greater than 100 µM.

For the compound `COC(=O)OCOc1c2n(ccc1=O)N([C@@H]1c3ccccc3SCc3c1ccc(F)c3F)[C@@H]1COCCN1C2=O` [Baloxavir Marboxil], the IC50 in the data set on RVFV strain ZH-548 (setting [1]) was greater than 100 µM. Also, the CC50 in “in vitro” is greater than 100 µM.

For `Nc1ccn(C[C@@H](CO)OCP(=O)(O)O)c(=O)n1` [Cidofovir], the “Activity against RVFV in cell culture” value in the data set with RVFV strain ZH-548 is “no effect”. Moreover, in the data set with RVFV strain ZH-548 (setting [1]), the IC50 was greater than 100 µM. For the same compound, the CC50 in “in vitro” is greater than 100 µM.

For the compound `Nc1ccn([C@@H]2C=C(CO)[C@@H](O)[C@H]2O)c(=O)n1` [Cyclopentenylcytosine], in the data set on RVFV strain ZH-548 (setting [1]), the IC50 is greater than 100 µM. Moreover, the CC50 in “in vitro” is greater than 100 µM.

Turning to `O=c1ccn([C@@H]2C=C(CO)[C@@H](O)[C@H]2O)c(=O)[nH]1` [Cyclopentenyluracil], the IC50 with RVFV strain ZH-548 (setting [1]) was greater than 100 µM. In the data set “in vitro”, the CC50 is greater than 100 µM.

For `Nc1ccn([C@@H]2O[C@H](CO)[C@@H](O)[C@@H]2O)c(=O)n1` [Cytarabine, Cytosine arabinoside], the concentration for half-maximal inhibition (IC50) in the data set on RVFV strain ZH-548 (setting [1]) is greater than 100 µM. In the data set “in vitro”, the CC50 was greater than 100 µM.

Regarding `COc1c(-c2ccc3cc(NS(C)(=O)=O)ccc3c2)cc(-n2ccc(=O)[nH]c2=O)cc1C(C)(C)C` [Dasabuvir], in the data set with RVFV strain ZH-548, the “Activity against RVFV in cell culture” value is given as “lacked activity”. Further, the IC50 with RVFV strain ZH-548 (setting [1]) was greater than 100 µM. Besides, the CC50 in “in vitro” amounted to 26 ± 7 µM.

Turning to `O=c1nc(NO)ccn1[C@@H]1O[C@H](CO)[C@@H](O)[C@H]1O` [EIDD-1931], the IC50 was 2 ± 0.3 µM in the data set on RVFV strain ZH-548 (setting [1]), 1.5 to 2.8 µM in the data set on RVFV strain ZH-548 (setting [2]) and 1.6 ± 0.2 µM at RVFV L protein. Besides, the “Cytotoxicity” value in the data set on VERO E6 cells is listed as “nontoxic in selected concentration range”. Also, the CC50 in the data set “in vitro” is greater than 100 µM.

As to `Nc1nc(=O)n([C@@H]2CS[C@H](CO)O2)cc1F` [Emtricitabine], the IC50 in the data set with RVFV strain ZH-548 (setting [1]) was greater than 100 µM. Moreover, the CC50 in the data set “in vitro” is greater than 100 µM.

`NC(=O)c1nc(F)c[nH]c1=O` [Favipiravir]: the IC50 with RVFV strain ZH-548 (setting [1]) stood at 37 ± 6 µM. In addition, the CC50 in “in vitro” is greater than 100 µM.

Regarding `CCCCCCCC/C=C/CCCCCCCC(=O)OC[C@H]1O[C@@H](n2ccc(N)nc2=O)C(F)(F)[C@@H]1O` [Gemcitabine elaidate], the IC50 in the data set with RVFV strain ZH-548 (setting [1]) is greater than 100 µM. In the data set “in vitro”, this compound showed a CC50 greater than 100 µM.

For `Nc1ccn([C@@H]2O[C@H](CO)[C@@H](O)C2(F)F)c(=O)n1` [Gemcitabine, 2'-deoxy-2',2'-difluorocytidine], the IC50 in the data set with RVFV strain ZH-548 (setting [1]) is greater than 100 µM. The CC50 in the data set “in vitro” was greater than 100 µM.

For `CCCC(CCC)C(=O)Nc1ccn([C@@H]2O[C@H](CO)[C@@H](O)C2(F)F)c(=O)n1` [LY-2334737], the IC50 with RVFV strain ZH-548 (setting [1]) is greater than 100 µM. Moreover, the CC50 in the data set “in vitro” was greater than 100 µM.

Regarding `Nc1ccn([C@@H]2CS[C@H](CO)O2)c(=O)n1` [Lamivudine], in the data set with RVFV strain ZH-548 (setting [1]), the IC50 is greater than 100 µM. In addition, the CC50 in the data set “in vitro” is greater than 100 µM.

In the case of `CC(C)C(=O)OC[C@H]1O[C@@H](n2ccc(NO)nc2=O)[C@H](O)[C@@H]1O` [Molnupiravir], the IC50 in the data set with RVFV strain ZH-548 (setting [1]) worked out at 27 ± 4 µM. In addition, the CC50 in “in vitro” was greater than 100 µM.

In the case of `CC(=O)Nc1ccn([C@@H]2O[C@H](CO)[C@@H](O)[C@H]2F)c(=O)n1` [N4-acetyl-2'-fluoro-2'-deoxycytidine], the IC50 in the data set on RVFV strain ZH-548 (setting [1]) was 20 ± 3 µM. The CC50 in “in vitro” was greater than 100 µM.

With `O=C(Nc1ccn([C@@H]2O[C@H](CO)[C@@H](O)[C@H]2F)c(=O)n1)c1ccccc1` [N4-benzoyl-2'-fluoro-2'-deoxycytidine], the IC50 with RVFV strain ZH-548 (setting [1]) came to 34 ± 4 µM. In “in vitro”, this compound had a CC50 greater than 100 µM.

For the compound `C[C@@]1(F)[C@H](O)[C@@H](CO)O[C@H]1n1ccc(N)nc1=O` [PSI-6130, 2'-deoxy-2'-fluoro-2'-C-methylcytidine], the IC50 with RVFV strain ZH-548 (setting [1]) was greater than 100 µM. Further, in “in vitro”, the CC50 was greater than 100 µM.

On to `O=C(O)[C@H]1C2CCC(CC2)[C@@H]1Nc1nc(-c2c[nH]c3ncc(F)cc23)ncc1F` [Pimodivir], for which, in the data set with RVFV strain ZH-548 (setting [1]), the IC50 is greater than 100 µM. Moreover, in “in vitro”, the CC50 was greater than 100 µM.

`CCC(CC)COC(=O)[C@H](C)N[P@](=O)(OC[C@H]1O[C@@](C#N)(c2ccc3c(N)ncnn23)[C@H](O)[C@@H]1O)Oc1ccccc1` [Remdesivir]: in the data set with RVFV strain ZH-548, the “Activity against RVFV in cell culture” value is “no effect”. The concentration for half-maximal inhibition (IC50) with RVFV strain ZH-548 (setting [1]) is greater than 100 µM. The compound also registered a CC50 in “in vitro” greater than 100 µM.

Consider `NC(=O)c1ncn([C@@H]2O[C@H](CO)[C@@H](O)[C@H]2O)n1` [Ribavirin], for which the IC50 in the data set with RVFV strain ZH-548 (setting [1]) is 55 ± 9 µM. This compound also returned a CC50 in “in vitro” greater than 100 µM.

For `CC(C)OC(=O)[C@H](C)N[P@](=O)(OC[C@H]1O[C@@H](n2ccc(=O)[nH]c2=O)[C@](C)(F)[C@@H]1O)Oc1ccccc1` [Sofosbuvir], the “Activity against RVFV in cell culture” value with RVFV strain ZH-548 was “lacked activity”. Also, the concentration for half-maximal inhibition (IC50) in the data set with RVFV strain ZH-548 (setting [1]) was greater than 100 µM. The compound also registered a CC50 in “in vitro” greater than 100 µM.

With `Cc1cn([C@H]2C=C[C@@H](CO)O2)c(=O)[nH]c1=O` [Stavudine], the IC50 in the data set on RVFV strain ZH-548 (setting [1]) is greater than 100 µM. Moreover, the CC50 in “in vitro” is greater than 100 µM.

As to `NC(=O)c1nccnc1O` [T-1105], the IC50 with RVFV strain ZH-548 (setting [1]) is greater than 100 µM. Further, in “in vitro”, the CC50 is greater than 100 µM.

Turning to `CC(C)OC(=O)[C@H](C)N[P@](=O)(CO[C@H](C)Cn1cnc2c(N)ncnc21)Oc1ccccc1` [Tenofovir Alafenamide], in the data set with RVFV strain ZH-548 (setting [1]), the IC50 is greater than 100 µM. For the same compound, the CC50 in “in vitro” is greater than 100 µM.

In the case of `Cc1cn([C@H]2C[C@H](N=[N+]=[N-])[C@@H](CO)O2)c(=O)[nH]c1=O` [Zidovudine], the IC50 in the data set on RVFV strain ZH-548 (setting [1]) was greater than 100 µM. Besides, the CC50 in the data set “in vitro” was greater than 100 µM.
